Assay results published in patent US20230044257A1, “COMPOSITIONS AND METHODS FOR ENHANCED UPTAKE OF ACTIVE INGREDIENTS FOR ANIMAL HEALTH AND NUTRITION” (AgroSpheres, Inc., priority 2019, published 2023).

How the values were obtained:
E. coli = details: cited from earlier work
[1] = Auto-oxidative degradation of essential oils under UV and Vis light; type: physicochemical; details: after 7 days under UV and Vis light
Method: (§1) AgriCell-encapsulated EOs (200 mg/mL of EO loaded with 200 mg/mL of AgriCell) were diluted 1:10 in deionized water (total volume 1000 μL, 14 replicates for each EO) and the solutions were left under UV radiation for a total period of 7 days. One replicate of each EO per treatment was collected daily and tested for EO content by UV-Vis spectroscopy as described in Example 2. Results were reported as concentration of EO as function of time for each stability condition.

[2] = Encapsulation (loading) efficacy of essential oils / active ingredients into AgriCell; type: physicochemical
Method: After AgriCells are purified, the concentrated AgriCell paste or dry lyophilized powder is loaded with EOs. If dry, the AgriCells are first homogenized into a finer powder through mechanical homogenization. A stock solution from each EO is prepared in ethanol at 100 mg/mL-200 mg/mL. Lyophilized AgriCells would then be suspended in a solution with the EO solution at a ratio of 1 g of dry AgriCells to 10 mL of EO solution. Once resuspended, the ethanol is allowed to evaporate overnight, leaving behind EO encapsulated AgriCells in the process. After this overnight period, encapsulated AgriCells are removed from the beaker, and the EO-encapsulated AgriCell powder is mechanically homogenized. This encapsulated product is ready for resuspension in its appropriate medium. Loading efficacy was measured and/or calculated as percentage of EO loaded into AgriCell after extraction with ethanol 100% v/v and quantification by UV-Vis spectroscopy. Eugenol and thymol were quantified at 280 nm, whereas pyrethrum was quantified at 230 nm against its respective calibration standard curve. Also, Genistein was quantified at […], whereas eugenol was quantified at 280 nm against its respective calibration standard curve.

[3] = Thermal degradation of essential oils at 40° C.; type: physicochemical; details: day 7 at 40° C., diluted 1:10 in deionized water
Method: as §1, with “at 40° C.” for “under UV radiation”, “content.” for “content by UV-Vis spectroscopy as described in Example 2.”

[4] = system: Escherichia coli ATCC 25922; assay: Zone of inhibition test (Kirby-Bauer); type: cell-based; details: ATCC25922, read-out: growth inhibition compared to positive control (Vancomycin 30 μg/mL)
Method: (§2) In this example, the zone of inhibition test, also called a Kirby-Bauer Test, was conducted to measure antibiotic resistance of eugenol encapsulated into AgriCell. Approximately 1×10^8 cells from a selected bacterial strain (Escherichia coli ATCC 25922 and Pseudomonas aeruginosa ATCC 15442) were spread over an agar plate using a sterile swab, then incubated in the presence of the antimicrobial agent (adsorbed over a paper disc). If the bacterial strain is susceptible to the antimicrobial agent, then a zone of inhibition appears on the agar plate, whereas if the selected bacterial strain is resistant to the antimicrobial agent, then no zone is evident.

[5] = system: Pseudomonas aeruginosa ATCC 15442; assay: Zone of inhibition test (Kirby-Bauer); type: cell-based; details: ATCC15442, read-out: growth inhibition compared to positive control (Vancomycin 30 μg/mL)
Method: as §2

E. coli strain ATCC 8739 = assay: Bacterial agglutination (transmittance at 450 nm); type: cell-based; details: 300 μg/mL
Method: E. coli strain ATCC 8739 (which causes disease outside of the intestinal tract and its highly virulent in chickens) from a frozen stock was cultured in tryptose broth (10 g of tryptose, 2.5 g of sodium chloride, 0.5 g of dextrose, and 0.0025 g of thiamin hydrochloride in 500 mL of deionized water) at 37° C. for 48 hours. After incubation, 1 mL of E. coli cultures were taken from the surface of the broth and used to inoculate new broths that were incubated at 37° C. for 24 hours. After 24 hours, the bacterial cultures were centrifuged at 1800 g for 10 minutes to obtain bacterial pellets. The pellets were washed twice with 1x PBS+Ca^2+/Mg^2+ and then resuspended in 1 mL of PBS+Ca^2+/Mg^2+ to obtain the bacterial stock solutions. The optical density of the suspension was measure at 600 nm and bacterial cell densities (CFU/mL) were calculated using previously established bacterial growth curves for each strain of bacteria. […] The final concentration of each cuvette was 300 μg/mL of genistein equivalent and 5.0×10^8 CFU/mL in a total volume of 1 mL. The cuvettes were mixed via trituration and placed on an UV-Visible spectrophotometer equipped with an eight-position cuvette holder. The percent transmittance of light at 450 nm was measured every 1 min for 240 min. […] After 240 min, the area under the curve was calculated from the generated transmittance calibration curves.

H. pylori = details: 2 mg/L; cited from earlier work
[6] = system: 3A9 T-cell hybridomas cocultured with mouse peritoneal macrophages; assay: IL-2 expression in 3A9 T-cell hybridomas cocultured with macrophages (ELISA); type: cell-based; details: 10 mg/mL
Method: Mouse peritoneal macrophages were resuspended in media and plated in 24-well cell-culture plates at a concentration of 1×10^8 cells/well. After 3 hours, the macrophages were attached and washed with DMEM media until cells other than macrophages were removed. Supplemented media (DMEM, 10% FBS, 2 mM of L-alanyl-L-glutamine, 100 U/mL of media penicillin and 100 U/mL of media streptomycin) was added and the macrophages were incubated overnight at 37° C. and 5% CO2. The 3A9 T-cell hybridomas were maintained in DMEM supplemented with 10% FBS, 50 μg of gentamycin/mL media, 2 mM of L-alanyl-L-glutamine, 10 mM of HEPES buffer, 55 μM of 2-mercaptoethanol, and 1× non-essential amino acids. For experiments, media was removed from the macrophages and rinsed once with PBS. […] The media was removed, and cells washed once with PBS. The T-cell hybridomas (concentration equals 2× the number of macrophages) in 3A9 media (without phenol red) were added to the macrophages and incubated for 24 hours. Media was removed, placed in microfuge tubes, centrifuged for 4 minutes at 15,000×g, and IL-2 was measured by an ELISA kit (555148, BD Biosciences). Data were expressed as pg of IL-2/mL media.

[7] = HEL release from AgriCell in PBS; type: physicochemical; details: PBS pH 7.3, 37° C.
Method: Samples were incubated at 37° C. under mild shaking. After 15, 30, 45, 60, 90, 120, 180, and 240 minutes, the tubes were given a spin-off and samples of 250 μL of the supernatant were taken. These samples were replaced by PBS (pH 7.3). The non-encapsulated HEL in PBS was determined with the Lowry protein assay and AgriCell-encapsulated HEL was determined by arithmetic differential calculation.

[8] = AI 100 mg/mL encapsulated into AgriCell (FIG. 4B)
[9] = EO 200 mg/mL encapsulated into AgriCell (FIG. 4A)

Compound | autoxidatively degraded (degradation rates) [1] | existence (remained/not damaged) [1] | encapsulation efficacy [2, 8] | encapsulation efficacy [2, 9] | percentages of degradation [3] | other results
CC(C)=CCCC(C)=CC=O [citral] | – | – | – | – | – | concentration in growth media that reduced the concentration of E. coli (E. coli): more than 0.01%; concentration with bactericidal effect (E. coli): 0.08%
C=CCc1ccc(O)c(OC)c1 [eugenol] | 82.7% | 17.3% | 91.1% | 95.5% | 17.3% | inhibition at 200 µg/mL [4]: < 80%; inhibition at 200 µg/mL [5]: < 60%
O=c1c(-c2ccc(O)cc2)coc2cc(O)cc(O)c12 [genistein] | – | – | 83.6% | – | – | lag phase of agglutination curve (E. coli strain ATCC 8739): about 25 minutes
CC(C)=CCC/C(C)=C/CO [geraniol] | – | – | – | – | – | growth of H. pylori in vitro (H. pylori): inhibited the growth
Cc1ccc(C(C)C)c(O)c1 [thymol] | 55.8% | 44.2% | – | 91.8% | 20.9% | –
HEL: hen egg-white lysozyme, model protein antigen, 14.7 kDa | – | – | – | – | – | preincubation time to maximum IL-2 expression [6]: > 10 h; HEL released, initial burst stage ([7]; 15 minutes): 89.2%; HEL released ([7]; 240 minutes): 100.1%
